In one assay the test system is Rap1. Briefly: Rap1 inhibition experiment, R-VEC tube formation. The class given is cell-based, human. As to conditions: R-VECs, 10 μM, 4 weeks. On the procedure: Tube formation assays for endothelial cells with or without ETV2 were set up in 24 wells as described above. The next day, Rap1 inhibitor (GGTI-298, Tocris) resuspended in DMSO was added to the wells at a 1:1000 dilution at the final concentration of 10 μM, while the same amount of DMSO was added to the control wells. The inhibitor and media were changed every other day for 4 weeks. Images were obtained and calculated as described above at 1 week and 4 week time points.

A further assay concerns ETV2 protein levels. In words: Proteasome inhibition experiment in R-VEC tubes. As to conditions: R-VEC tubes at stabilization stage (4 weeks), 20 μM for 6 hrs vs DMSO, Western blot. The class given is cell-based, human. On the procedure: Cells were lysed into 1×SDS loading buffer (50 mM Tris-HCl pH 6.8, 5% beta-mercaptoethanol, 2% SDS, 0.01% bromophenol blue, 10% glycerol) followed by sonication (Bioruptor, 2×30 seconds at high setting). Proteins were solved on 5-15% gradient Tris-glycine SDS-PAGE and semi-dry transferred to nitrocellulose membranes. The following primary antibodies were used at indicated dilutions: Rap1 (CST, #2399, 1:1,000); RASGRP3 (CST, #3334, 1:1,000), GAPDH (CST, #5174, 1:10,000); AKT (CST, 34685, 1:5,000); p-S473-Akt (CST, #4060, 1:2,000); ETS1 (CST, #14069, 1,000); and ETV2 (Abcam, ab181847, 1:1,000). HRP-conjugated secondary antibodies and the ECL Prime Western Blotting System (GE Healthcare, RPN2232) were then used. Chemiluminescent signals were captured with a digital camera (Kindle Biosciences) and images of protein bands taken for quantification using ImageJ.
R-VEC vessels were prepared on Matrigel as described above. At stabilization stage (4 weeks), R-VEC tubes were treated with either 20 μM of MG132 (Selleck Chemicals) or DMSO for 6 hrs. The media was removed and the wells were washed once with PBS. R-VEC tubes were then incubated in a solution of 2 mg/ml Dispase (Sigma) for 45 mins at 37° C. to dissociate the tubes. 20 μM of MG132 (Selleck Chemicals) or DMSO was continuously provided during the dissociation period. […]

The values below come from patent US12576114B2, “Methods of functional vascularization of pancreatic islets and beta-cell organoids” (CORNELL UNIVERSITY, priority 2019, dated 2026).

SMILES strings stand for the structures. Residues, ends and D or L forms follow the SMILES beside them. *: point of attachment. Cbz = O=C(OCc1ccccc1)*

As to `COC(=O)[C@H](CC(C)C)NC(=O)c1ccc(NC[C@@H](N)CS)cc1-c1cccc2ccccc12` [GGTI298], the lumen entry with Rap1 (confocal and electron microscopy) is “no lumen was present”. For the same molecule, the vessel formation result in the assay with Rap1 (vs DMSO) was “significantly reduced”.
In the case of `CC(C)C[C@@H](C=O)NC(=O)[C@H](CC(C)C)NC(=O)[C@H](CC(C)C)NC(=O)OCc1ccccc1` [MG132] (Cbz-Leu-Leu-Leu-aldehyde), the “ETV2 protein levels restored” value in the assay on ETV2 protein levels is recorded as “six-fold”.
